Measurements: US6413974B1, “6,9,-disubstituted 2-[trans-(4-aminocyclohexyl) amino] purines” (Aventis Pharmaceuticals Inc., priority 1998, dated 2002)
Values joined by “and” are separate entries in the source; they are usually repeats but may differ in a detail not shown here. Identical values can stand only once. Counter-ions that a name gives are not always drawn. Like-named read-outs stand apart in the source and are kept apart here.

How the values were obtained:
DU 145 = test: In vitro tumor cell proliferation, DU 145; type: cell-based, human; settings: read-out: In vitro Tumor Cell Proliferation (IC50, μM) Prostate DUI45
In short: (§1)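 SRB read-out: 3-day drug exposure, medium and drug renewed, 4 further days, TCA fixation at 4° C, 0.4% SRB stain. CyQUANT alternative: 3-day drug exposure, then plates frozen at −80° C ≥30 min. Cells plated overnight at 37° C before dosing.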

MDA-MB-231 = test: In vitro tumor cell proliferation, MDA-MB-231; type: cell-based, human; settings: read-out: In vitro Tumor Cell Proliferation (IC50, μM) Breast MDA-MB-231
In short: as §1

cdk4/cyclin D1 = target: T1, cdk4/cyclin D1 (Homo sapiens, UniProt P11802); test: Cyclin-dependent kinase 4 Assay; type: biochemical; settings: cdk4/cyclin D1, GST-Rb substrate, 10 μM ATP, 30 min at 37° C.; read-out: CDK4 Inhibition IC50
T1 construct: made in house; host or cells: Sf9 insect cells (Bac-to-Bac baculovirus, pFastBac)
T1 sequence (P11802 whole entry): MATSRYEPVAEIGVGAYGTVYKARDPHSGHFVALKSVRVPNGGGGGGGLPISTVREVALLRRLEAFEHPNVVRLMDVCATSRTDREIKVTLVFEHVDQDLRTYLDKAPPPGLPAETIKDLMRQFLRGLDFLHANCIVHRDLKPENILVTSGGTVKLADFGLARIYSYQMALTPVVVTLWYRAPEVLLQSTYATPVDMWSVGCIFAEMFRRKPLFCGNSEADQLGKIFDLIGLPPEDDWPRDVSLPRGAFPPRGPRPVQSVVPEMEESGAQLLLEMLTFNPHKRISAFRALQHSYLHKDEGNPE
T1 sequence (P24385 whole entry partner): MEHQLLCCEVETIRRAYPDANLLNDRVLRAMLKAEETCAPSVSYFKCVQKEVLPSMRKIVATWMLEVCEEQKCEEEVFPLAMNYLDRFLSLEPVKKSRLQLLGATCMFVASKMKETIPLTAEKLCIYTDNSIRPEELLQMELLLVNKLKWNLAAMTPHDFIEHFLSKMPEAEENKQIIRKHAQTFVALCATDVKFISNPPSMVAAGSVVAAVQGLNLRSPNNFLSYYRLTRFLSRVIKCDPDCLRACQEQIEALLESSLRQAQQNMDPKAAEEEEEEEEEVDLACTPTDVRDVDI
In short: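 Insect-cell lysate of coexpressed human cdk4/cyclin D1 (0.1 μg) phosphorylated bead-bound GST-Rb (0.5 μg) in 50 mM HEPES pH 7.5, 10 mM MgCl2, 1 mM EGTA for 30 min at 37 °C. Filters were washed with TNEN and scintillation-counted; IC50 values derived.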

cdk2/cyclin E = target: T2, cdk2/cyclin E (Homo sapiens, UniProt P24941); test: Cyclin-Dependent Kinase 2 Assay (cdk-2 inhibition); type: biochemical; settings: GST-Rb substrate, 30 min at 30° C.
T2 construct: made in house; host or cells: insect cells (baculovirus co-infection)
In short: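 GST-Rb bound to glutathione-Sepharose beads (0.5 μg/well) as substrate in 50 mM HEPES pH 7.5, 10 mM MgCl2, 1 mM EGTA. Recombinant cdk2/cyclin E at 0.1 μg per 100 μl, 30 min at 30 °C. Reaction stopped by filtration, TNEN washes, scintillation counting.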

DMS-114 = test: In vitro tumor cell proliferation, DMS-114; type: cell-based, human; settings: read-out: In vitro Tumor Cell Proliferation (IC50, μM) Lung DMS-114
In short: as §1

HT-29 = test: In vitro tumor cell proliferation, HT-29; type: cell-based, human; settings: read-out: In vitro Tumor Cell Proliferation (IC50, μM) Colon HT-29 (converted)
In short: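 HT-29 human colon adenocarcinoma cells plated overnight at 37° C., then exposed to drug for 3 days, medium with fresh drug replaced for a further 4 days. Cells fixed with 10% TCA and stained with 0.4% sulforhodamine B; alternatively, CyQUANT read after 3 days of drug exposure.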

PC-3 = test: In vitro tumor cell proliferation, PC-3; type: cell-based, human; settings: read-out: In vitro Tumor Cell Proliferation (IC50, μM) Prostate PC-3
In short: as §1

HCT-15 = test: In vitro tumor cell proliferation, HCT-15; type: cell-based, human; settings: read-out: In vitro Tumor Cell Proliferation (IC50, μM) Colon HCT-15
Procedure: The proliferation of tumor cells was measured using a sulforhodamine B assay as described in Skehan, P., et al., J. Natl. Cancer Inst. […] Tumor cells were harvested with trypsin-EDTA, cells that excluded trypan blue were counted, added to 96-well plates and incubated overnight at 37° C. Drug was added to the wells following dilution in culture medium. Three days later, the medium was removed and replenished with medium containing fresh drug and incubated an additional 4 days. The cells were then fixed with 0.1 ml 10% trichloroacetic acid for 60 min at 4° C. The plates were rinsed five times with tap water, air-dried and stained for 30 min with 0.4% sulforhodamine B in 1% acetic acid and air-dried.
Alternatively, the CyQUANT cell proliferation assay was used to quantify tumor cell proliferation. Tumor cells were harvested with trypsin-EDTA, cells that excluded trypan blue were counted, added to 96-well plates and incubated overnight at 37° C. Drug was added to the wells following dilution in culture medium. Three days later the medium was removed and the plates frozen at −80° C. for at least 30 minutes.

A549 = test: In vitro tumor cell proliferation, A549; type: cell-based, human; settings: read-out: In vitro Tumor Cell Proliferation (IC50, μM) Lung A549
In short: as §1

[1] = Homo sapiens, DU-145, values without *
[2] = values without *, dihydrochloride
[3] = Homo sapiens, MDA-MB-231, values without *
[4] = Homo sapiens, DMS-114, values without *
[5] = Homo sapiens, HT-29, values without *
[6] = Homo sapiens, PC-3, values without *
[7] = Homo sapiens, HCT-15, values without *
[8] = Homo sapiens, A549, values without *

Structure (SMILES) | IC50 (DU 145; [1]) | IC50 (DU 145; [2]) | IC50 (MDA-MB-231; [3]) | IC50 (cdk4/cyclin D1) | IC50 (cdk2/cyclin E) | IC50 (DMS-114; [4]) | IC50 (DMS-114; [2]) | IC50 (HT-29; [5]) | IC50 (HT-29; [2]) | IC50 (PC-3; [6]) | IC50 (PC-3; [2]) | IC50 (HCT-15; [7]) | IC50 (A549; [8]) | IC50 (HCT-15; [2]) | IC50 (A549; [2]) | IC50 (MDA-MB-231; [2])
Cc1cccc(CNc2nc(N[C@H]3CC[C@H](N)CC3)nc3c2ncn3C2CCCC2)c1 [Example 11, 2-[Trans-(4-aminocyclohexyl)amino]-6-[(3-methylbenzyl)amino]-9-cyclopentylpurine dihydrochloride] | 4.8 µM | 8 µM | 7.4 µM | 11000 nM and 7400 nM | 150 nM | 4.5 µM | 7.1 µM | 8.2 µM | 11 µM | 5.8 µM | 4.2 µM | 11 µM | – | – | – | –
N[C@H]1CC[C@H](Nc2nc(NCC3CCCCC3)c3ncn(C4CCCC4)c3n2)CC1 [Example 22, 2-[Trans-(4-aminocyclohexyl)amino]-6-[(cyclohexyl)methylamino]-9-cyclopentylpurine dihydrochloride] | 7.5 µM | 11 µM | 8.6 µM | 24000 nM and 63000 nM | 520 nM | 9 µM | – | 16 µM | 12 µM | – | – | 17 µM | 8 µM | 15 µM | – | –
N[C@H]1CC[C@H](Nc2nc(NCc3ccc(Cl)cc3)c3ncn(C4CCCC4)c3n2)CC1 [Example 27, 2-[Trans-(4-aminocyclohexyl)amino]-6-[(4-chlorobenzyl)amino]-9-cyclopentylpurine dihydrochloride] | 7.2 µM | 11 µM | 7 µM | 17000 nM and 9000 nM | 440 nM | 9.5 µM | 6.8 µM | 16 µM | – | 8.7 µM | – | – | 8.4 µM | 15 µM | 11 µM | –
N[C@H]1CC[C@H](Nc2nc(NCc3cccc(Cl)c3)c3ncn(C4CCCC4)c3n2)CC1 [Example 29, 2-[Trans-(4-aminocyclohexyl)amino]-6-[(3-chlorobenzyl)amino]-9-cyclopentylpurine dihydrochloride] | 0.8 µM | 0.92 µM | 1.1 µM | 530 nM | 32 nM | 0.52 µM | 0.63 µM | 2.4 µM | 1.5 µM | – | – | 3.8 µM | 0.92 µM | 2.9 µM | 1.3 µM | 1.6 µM
N[C@H]1CC[C@H](Nc2nc(NCC3CC3)c3ncn(C4CCCC4)c3n2)CC1 [Example 34, 2-[Trans-(4-aminocyclohexyl)amino]-6-[(cyclopropyl)methylamino]-9-cyclopentylpurine dihydrochloride] | 0.97 µM | 1.7 µM | 1.2 µM | 930 nM and 640 nM | 24 nM | 1.5 µM | 1.4 µM | 1.3 µM | 2.6 µM | – | – | 3.3 µM | 1.9 µM | 3.4 µM | 1.2 µM | 2.2 µM
N[C@H]1CC[C@H](Nc2nc(NCc3ccc(Cl)cc3Cl)c3ncn(C4CCCC4)c3n2)CC1 [Example 48, 2-[Trans-(4-aminocyclohexyl)amino]-6-[(2,4-dichlorobenzyl)amino]-9-cyclopentylpurine dihydrochloride] | 3.2 µM | 3.4 µM and 2.8 µM and 2.5 µM | 3 µM | 4400 nM and 5300 nM | 800 nM | 1.8 µM | 1.9 µM and 2 µM and 1.4 µM | 2.8 µM | 2.7 µM and 2.4 µM | 2 µM | 1.9 µM and 1.6 µM | 3.1 µM | 2.2 µM | 3.7 µM and 3.4 µM | 2.3 µM and 2.1 µM | 3.1 µM and 2 µM and 1.8 µM
